Results published in ChEMBL document CHEMBL1201862, “PubChem BioAssay data set” (2004).
Activity calls are given as the source filed them.

Key:
[1] = target: Estrogen receptor beta (Homo sapiens, UniProt Q92731);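 also: recombinant ER-beta bound to coactivator SRC1 peptide in presence of estradiol agonist; inhibitors block coactivator peptide binding and lower the FRET signal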
[2] = C. albicans growth with fluconazole, confirmation, fluorescence, retest (AID 2467); format: functional, cell-based
[3] = test system: Vero; test: cells; format: functional; conditions: Chlorocebus sabaeus
[4] = NIH-3T3 fibroblast cytotoxicity, dose response, cytotoxicity control, cell-based, fluorescence, Alamar Blue, secondary assay (AID 2327); format: functional;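 also: NIH-3T3 mouse fibroblasts cultured with fluconazole at 8 µg/mL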
[5] = Luminescent dose response cell-based high throughput screening assay for inhibitors of the Janus kinase 2 mutant JAK2V617F. [Related pubchem assays: 1446 (Primary screen.), 1521 (Confirmation assay.), 1486 (Counter screen.)]; format: functional
[6] = M. tuberculosis H37Rv growth inhibitors, H37Rv strain (AID 1626); format: functional
[7] = target: T1, Hexokinase HKDC1 (Homo sapiens, UniProt Q2TB90); test: HKDC1 hexokinase inhibitors, dose response, biochemical, W721R variant (AID 504729); format: functional
T1 sequence (Q2TB90 whole entry): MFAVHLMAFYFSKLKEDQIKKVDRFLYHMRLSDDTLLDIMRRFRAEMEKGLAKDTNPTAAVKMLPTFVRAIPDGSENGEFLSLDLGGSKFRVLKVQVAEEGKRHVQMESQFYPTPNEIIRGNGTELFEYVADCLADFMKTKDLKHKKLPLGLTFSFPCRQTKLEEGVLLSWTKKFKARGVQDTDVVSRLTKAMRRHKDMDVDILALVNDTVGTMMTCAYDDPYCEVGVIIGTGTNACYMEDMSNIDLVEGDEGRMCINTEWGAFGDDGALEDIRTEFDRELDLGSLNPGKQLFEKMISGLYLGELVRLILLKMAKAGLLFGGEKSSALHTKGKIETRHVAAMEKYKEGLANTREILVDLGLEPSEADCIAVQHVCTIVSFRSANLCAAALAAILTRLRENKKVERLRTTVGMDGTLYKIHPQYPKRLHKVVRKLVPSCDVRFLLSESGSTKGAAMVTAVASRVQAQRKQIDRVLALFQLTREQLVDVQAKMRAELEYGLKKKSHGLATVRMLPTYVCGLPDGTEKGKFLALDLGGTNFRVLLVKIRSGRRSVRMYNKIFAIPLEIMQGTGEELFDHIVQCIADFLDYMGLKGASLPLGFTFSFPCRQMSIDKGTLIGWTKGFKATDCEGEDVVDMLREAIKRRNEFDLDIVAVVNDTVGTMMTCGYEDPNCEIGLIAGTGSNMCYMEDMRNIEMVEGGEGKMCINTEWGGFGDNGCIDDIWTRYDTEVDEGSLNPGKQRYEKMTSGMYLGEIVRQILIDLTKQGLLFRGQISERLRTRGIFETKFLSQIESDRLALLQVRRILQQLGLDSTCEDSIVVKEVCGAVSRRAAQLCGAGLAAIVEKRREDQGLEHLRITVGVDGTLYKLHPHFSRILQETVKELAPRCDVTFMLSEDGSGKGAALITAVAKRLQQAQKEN

[8] = cytotoxicity in HPDE-C7 cells, cell-based, fluorescence, HTS (AID 430); format: functional; conditions: Homo sapiens
[9] = cytotoxicity in KRAS-transformed pancreatic duct cells, primary screen, cell-based, fluorescence, HTS (AID 431); format: functional; conditions: Homo sapiens;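 also: cell line used: HPDE-C7K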
[10] = cells; format: functional
[11] = target: Mitogen-activated protein kinase 10 (Homo sapiens, UniProt P53779); test: Dose response biochemical screening assay for inhibitors of c-Jun N-Terminal Kinase 3 (JNK3). [Related pubchem assays: 746 ]
[12] = target: T2, Estrogen receptor (Homo sapiens, UniProt P03372);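 also: potency for inhibiting coactivator peptide recruitment to the receptor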
T2 sequence (P03372 whole entry): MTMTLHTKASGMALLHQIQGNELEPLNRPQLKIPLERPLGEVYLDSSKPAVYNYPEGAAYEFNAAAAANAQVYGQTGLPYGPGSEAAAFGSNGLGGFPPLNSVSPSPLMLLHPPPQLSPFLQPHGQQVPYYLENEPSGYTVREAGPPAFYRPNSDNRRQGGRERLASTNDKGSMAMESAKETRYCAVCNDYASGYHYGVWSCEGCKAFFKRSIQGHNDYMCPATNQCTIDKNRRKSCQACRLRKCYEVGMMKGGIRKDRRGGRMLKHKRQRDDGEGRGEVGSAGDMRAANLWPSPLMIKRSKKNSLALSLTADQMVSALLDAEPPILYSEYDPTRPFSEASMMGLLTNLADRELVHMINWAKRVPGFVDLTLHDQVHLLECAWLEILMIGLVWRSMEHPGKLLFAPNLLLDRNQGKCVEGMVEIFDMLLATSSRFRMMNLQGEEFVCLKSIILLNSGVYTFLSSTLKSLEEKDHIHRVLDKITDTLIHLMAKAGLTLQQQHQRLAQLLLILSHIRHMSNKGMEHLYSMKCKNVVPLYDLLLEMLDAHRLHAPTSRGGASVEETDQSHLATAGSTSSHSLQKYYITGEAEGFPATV

[13] = target: T3, Polyadenylate-binding protein 1 (Homo sapiens, UniProt P11940); test: PABP1 MLLE–PAM2 binding inhibitor potency, dose response, biochemical, fluorescence polarization, FITC-PAM2 peptide (AID 602259); format: functional; conditions: read-out: IC50_Mean
[14] = target: Beta-galactosidase (Escherichia coli, UniProt Q8VNN2); test: beta-galactosidase enzyme inhibitors and activators, dose response, artefact control for CCR6 antagonist project, biochemical, E. coli enzyme, set 3 (AID 504712); format: functional
[15] = target: T3, Polyadenylate-binding protein 1; test: PABP1 MLLE–PAM2 interaction inhibitors, dose response, miRNA deadenylation inhibitor project, biochemical, fluorescence polarization, Cy5-PAM2 peptide, secondary (AID 602260); format: functional; conditions: read-out: IC50_Mean
[16] = target: Induced myeloid leukemia cell differentiation protein Mcl-1 (Homo sapiens, UniProt Q07820); format: functional
[17] = test system: Vero; test: Vero cell cytotoxicity, cytotoxicity control for flavivirus capping enzyme inhibitors (AID 588742); format: functional; conditions: Chlorocebus sabaeus
[18] = target: Genome polyprotein (dengue virus type 2, UniProt P29990); test: Dengue-2 NS5 methyltransferase inhibitors, primary screen, biochemical, confirmation dose response (AID 588689); format: functional
[19] = target: T4, Protein RecA (Mycobacterium tuberculosis, UniProt P9WHJ3); test: Fluorescence Cell-Free Homogeneous Dose Retest to Identify Inhibitors of RecA-Intein Splicing Activity. [Related pubchem assays (depositor defined):AID2097, AID2223, AID489010, AID492950]; format: functional
T4 sequence (P9WHJ3 whole entry): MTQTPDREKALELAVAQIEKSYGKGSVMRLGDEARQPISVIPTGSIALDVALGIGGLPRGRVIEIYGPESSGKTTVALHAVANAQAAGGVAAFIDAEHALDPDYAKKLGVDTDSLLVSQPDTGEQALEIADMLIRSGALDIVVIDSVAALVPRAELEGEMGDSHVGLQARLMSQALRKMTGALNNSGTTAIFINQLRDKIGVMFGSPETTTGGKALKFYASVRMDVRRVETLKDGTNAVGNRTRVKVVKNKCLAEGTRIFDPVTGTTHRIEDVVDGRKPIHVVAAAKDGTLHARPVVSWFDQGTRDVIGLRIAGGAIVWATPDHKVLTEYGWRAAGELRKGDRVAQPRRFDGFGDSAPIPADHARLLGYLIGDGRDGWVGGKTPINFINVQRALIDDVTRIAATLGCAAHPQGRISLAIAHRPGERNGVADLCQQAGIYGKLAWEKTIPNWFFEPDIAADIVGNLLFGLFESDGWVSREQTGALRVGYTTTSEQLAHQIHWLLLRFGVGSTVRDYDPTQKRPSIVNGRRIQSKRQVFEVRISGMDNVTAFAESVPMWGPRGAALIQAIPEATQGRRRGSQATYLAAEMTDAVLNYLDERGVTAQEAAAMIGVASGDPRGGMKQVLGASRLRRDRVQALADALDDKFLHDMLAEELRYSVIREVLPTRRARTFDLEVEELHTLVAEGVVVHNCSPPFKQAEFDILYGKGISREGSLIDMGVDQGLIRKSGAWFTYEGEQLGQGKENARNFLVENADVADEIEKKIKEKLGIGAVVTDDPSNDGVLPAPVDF

[20] = target: T5, Replicative DNA helicase DnaB (Mycobacterium tuberculosis, UniProt P9WMR3); test: DnaB intein splicing inhibitors, dose response, biochemical, cell-free fluorescence (AID 449749); format: functional
T5 sequence (P9WMR3 whole entry): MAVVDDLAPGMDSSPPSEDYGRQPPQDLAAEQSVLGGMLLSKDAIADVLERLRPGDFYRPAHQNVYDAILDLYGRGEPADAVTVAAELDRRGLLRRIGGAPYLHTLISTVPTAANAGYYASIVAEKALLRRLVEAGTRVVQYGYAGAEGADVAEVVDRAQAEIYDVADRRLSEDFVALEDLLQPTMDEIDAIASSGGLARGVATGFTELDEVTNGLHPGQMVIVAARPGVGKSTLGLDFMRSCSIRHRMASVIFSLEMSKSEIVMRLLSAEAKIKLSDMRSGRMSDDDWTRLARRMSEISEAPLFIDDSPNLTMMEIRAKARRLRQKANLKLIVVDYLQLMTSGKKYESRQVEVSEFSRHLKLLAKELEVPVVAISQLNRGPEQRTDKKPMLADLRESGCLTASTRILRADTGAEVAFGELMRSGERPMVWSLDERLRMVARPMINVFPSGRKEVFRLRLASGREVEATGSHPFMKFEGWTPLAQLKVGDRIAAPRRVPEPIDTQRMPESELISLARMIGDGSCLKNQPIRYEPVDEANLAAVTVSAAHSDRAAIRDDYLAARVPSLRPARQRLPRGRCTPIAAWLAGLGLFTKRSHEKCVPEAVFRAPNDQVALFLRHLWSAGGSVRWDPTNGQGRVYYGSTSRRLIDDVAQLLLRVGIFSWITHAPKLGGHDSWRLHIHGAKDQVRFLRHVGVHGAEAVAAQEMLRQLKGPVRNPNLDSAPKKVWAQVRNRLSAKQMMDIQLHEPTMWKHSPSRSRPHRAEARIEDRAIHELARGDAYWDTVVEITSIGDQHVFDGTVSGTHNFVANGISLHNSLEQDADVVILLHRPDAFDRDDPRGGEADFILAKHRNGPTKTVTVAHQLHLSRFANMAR

[21] = target: T6, Heat shock factor protein 1 (Mus musculus, UniProt P38532); test: HSF1 potentiators in luciferase reporter cells, confirmation, cell-based, NIH3T3, luminescence, dose retest (AID 435004); format: functional;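 also: stress induced by proteasome inhibitor MG132 added 30 min after compound; luciferase reporter driven by HSF1 response element in NIH3T3 cells; actives raise luminescence as potentiators of the MG132 stress response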
T6 sequence (P38532 whole entry): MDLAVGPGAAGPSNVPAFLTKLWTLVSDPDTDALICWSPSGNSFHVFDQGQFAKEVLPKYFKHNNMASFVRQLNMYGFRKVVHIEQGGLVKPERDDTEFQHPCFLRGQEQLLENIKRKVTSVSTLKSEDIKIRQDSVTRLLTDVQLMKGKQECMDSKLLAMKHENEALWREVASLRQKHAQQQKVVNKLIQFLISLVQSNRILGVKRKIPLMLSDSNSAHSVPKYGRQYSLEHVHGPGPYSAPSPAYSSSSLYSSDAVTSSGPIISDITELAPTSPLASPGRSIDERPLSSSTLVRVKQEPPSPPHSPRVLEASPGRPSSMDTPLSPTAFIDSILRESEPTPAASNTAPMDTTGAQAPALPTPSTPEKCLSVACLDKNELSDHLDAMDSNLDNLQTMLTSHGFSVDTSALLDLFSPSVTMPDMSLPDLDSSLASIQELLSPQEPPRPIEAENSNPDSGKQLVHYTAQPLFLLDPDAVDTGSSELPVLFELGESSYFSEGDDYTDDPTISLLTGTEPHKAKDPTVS

[22] = target: Prothrombin (Homo sapiens, UniProt P00734); test: Thrombin 1536 HTS Dose Response Confirmation. [Related pubchem assays: 1046 (Thrombin 1536 HTS; hits were confirmed in this assay)]; format: functional
[23] = target: Nonstructural protein 1 (Influenza A virus, UniProt Q194T2); format: functional, Influenza A virus (A/California/07/2009(H1N1))
Nonstructural protein 1, sequence (Q194T2 whole entry): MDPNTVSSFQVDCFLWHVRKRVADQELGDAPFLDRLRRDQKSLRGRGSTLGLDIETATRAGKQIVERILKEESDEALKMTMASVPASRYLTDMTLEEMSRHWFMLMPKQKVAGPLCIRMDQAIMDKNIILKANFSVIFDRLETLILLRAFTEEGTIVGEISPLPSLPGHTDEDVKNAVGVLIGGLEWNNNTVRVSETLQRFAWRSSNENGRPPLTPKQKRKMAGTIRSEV

T3 sequence (P11940 whole entry): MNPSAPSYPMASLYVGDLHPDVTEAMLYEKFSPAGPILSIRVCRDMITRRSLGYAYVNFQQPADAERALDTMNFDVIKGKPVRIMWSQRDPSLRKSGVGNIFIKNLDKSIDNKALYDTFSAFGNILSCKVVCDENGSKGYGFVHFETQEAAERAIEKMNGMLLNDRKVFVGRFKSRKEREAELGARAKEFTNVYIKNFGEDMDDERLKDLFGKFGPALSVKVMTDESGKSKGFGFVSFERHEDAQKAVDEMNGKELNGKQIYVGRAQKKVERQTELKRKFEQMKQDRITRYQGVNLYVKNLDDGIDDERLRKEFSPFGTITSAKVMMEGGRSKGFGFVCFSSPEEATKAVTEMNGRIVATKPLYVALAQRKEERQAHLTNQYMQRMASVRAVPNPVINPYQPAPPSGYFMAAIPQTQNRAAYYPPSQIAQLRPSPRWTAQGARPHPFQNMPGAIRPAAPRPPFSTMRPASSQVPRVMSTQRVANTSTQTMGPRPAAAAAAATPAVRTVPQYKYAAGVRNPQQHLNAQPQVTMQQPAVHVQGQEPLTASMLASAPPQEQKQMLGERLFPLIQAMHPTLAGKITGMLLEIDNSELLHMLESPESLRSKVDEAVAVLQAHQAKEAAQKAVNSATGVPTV
Estrogen receptor beta, sequence (Q92731 whole entry): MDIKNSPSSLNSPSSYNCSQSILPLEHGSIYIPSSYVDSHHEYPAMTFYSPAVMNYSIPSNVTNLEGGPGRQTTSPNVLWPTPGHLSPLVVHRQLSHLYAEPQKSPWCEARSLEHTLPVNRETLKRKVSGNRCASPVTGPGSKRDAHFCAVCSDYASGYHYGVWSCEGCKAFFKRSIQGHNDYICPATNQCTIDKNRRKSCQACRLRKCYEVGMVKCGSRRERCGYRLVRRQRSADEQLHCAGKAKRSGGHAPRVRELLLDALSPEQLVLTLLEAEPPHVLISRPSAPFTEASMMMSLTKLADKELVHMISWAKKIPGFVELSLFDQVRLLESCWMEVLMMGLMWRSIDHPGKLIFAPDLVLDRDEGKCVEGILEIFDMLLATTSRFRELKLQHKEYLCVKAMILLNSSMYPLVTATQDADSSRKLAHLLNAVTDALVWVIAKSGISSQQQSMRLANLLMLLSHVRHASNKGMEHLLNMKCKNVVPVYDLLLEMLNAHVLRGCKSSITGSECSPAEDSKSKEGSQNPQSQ
Genome polyprotein, sequence (P29990 2492-3391 limits assumed): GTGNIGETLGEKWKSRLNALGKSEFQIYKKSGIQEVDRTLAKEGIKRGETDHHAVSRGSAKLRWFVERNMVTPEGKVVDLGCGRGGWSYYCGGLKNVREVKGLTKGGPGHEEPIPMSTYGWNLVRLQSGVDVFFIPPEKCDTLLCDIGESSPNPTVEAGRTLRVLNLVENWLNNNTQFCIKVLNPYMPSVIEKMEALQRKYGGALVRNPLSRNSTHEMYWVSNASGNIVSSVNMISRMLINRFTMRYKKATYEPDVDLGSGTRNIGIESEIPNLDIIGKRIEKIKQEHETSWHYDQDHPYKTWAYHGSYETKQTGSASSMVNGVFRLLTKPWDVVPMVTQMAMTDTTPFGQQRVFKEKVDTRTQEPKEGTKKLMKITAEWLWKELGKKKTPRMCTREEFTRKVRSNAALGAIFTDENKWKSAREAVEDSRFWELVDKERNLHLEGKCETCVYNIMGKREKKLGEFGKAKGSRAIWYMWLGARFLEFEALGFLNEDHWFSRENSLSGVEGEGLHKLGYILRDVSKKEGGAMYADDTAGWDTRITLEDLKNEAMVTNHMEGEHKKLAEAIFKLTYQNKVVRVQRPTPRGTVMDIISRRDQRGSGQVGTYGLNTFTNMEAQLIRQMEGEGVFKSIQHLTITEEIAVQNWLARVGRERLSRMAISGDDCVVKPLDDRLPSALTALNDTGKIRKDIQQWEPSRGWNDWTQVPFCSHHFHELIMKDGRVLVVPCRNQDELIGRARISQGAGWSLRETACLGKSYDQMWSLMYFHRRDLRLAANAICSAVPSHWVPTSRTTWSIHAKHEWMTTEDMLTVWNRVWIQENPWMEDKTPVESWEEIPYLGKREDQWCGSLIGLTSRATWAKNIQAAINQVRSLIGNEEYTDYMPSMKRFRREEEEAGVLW
Induced myeloid leukemia cell differentiation protein Mcl-1, sequence (Q07820 whole entry): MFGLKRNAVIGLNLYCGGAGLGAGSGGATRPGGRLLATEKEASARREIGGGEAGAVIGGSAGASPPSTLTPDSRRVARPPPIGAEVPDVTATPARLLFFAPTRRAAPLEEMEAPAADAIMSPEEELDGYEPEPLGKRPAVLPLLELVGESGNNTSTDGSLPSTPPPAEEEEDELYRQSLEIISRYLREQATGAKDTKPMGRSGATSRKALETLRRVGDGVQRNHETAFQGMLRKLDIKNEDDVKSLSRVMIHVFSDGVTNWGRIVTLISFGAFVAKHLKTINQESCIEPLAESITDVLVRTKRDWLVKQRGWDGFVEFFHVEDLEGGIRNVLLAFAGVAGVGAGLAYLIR
Mitogen-activated protein kinase 10, sequence (P53779 whole entry): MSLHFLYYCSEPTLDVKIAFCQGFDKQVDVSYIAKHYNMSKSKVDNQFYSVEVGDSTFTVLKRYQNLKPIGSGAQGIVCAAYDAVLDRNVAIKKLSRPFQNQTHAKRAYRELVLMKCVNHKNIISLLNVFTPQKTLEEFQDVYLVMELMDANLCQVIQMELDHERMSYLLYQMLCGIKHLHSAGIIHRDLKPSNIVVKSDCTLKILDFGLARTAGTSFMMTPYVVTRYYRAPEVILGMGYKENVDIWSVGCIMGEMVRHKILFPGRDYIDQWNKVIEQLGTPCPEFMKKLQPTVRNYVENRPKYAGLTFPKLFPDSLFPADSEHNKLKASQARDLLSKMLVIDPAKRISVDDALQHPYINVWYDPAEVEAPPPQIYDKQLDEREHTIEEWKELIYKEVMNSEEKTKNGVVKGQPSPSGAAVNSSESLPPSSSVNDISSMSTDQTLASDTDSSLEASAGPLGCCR
Beta-galactosidase, sequence (Q8VNN2 whole entry): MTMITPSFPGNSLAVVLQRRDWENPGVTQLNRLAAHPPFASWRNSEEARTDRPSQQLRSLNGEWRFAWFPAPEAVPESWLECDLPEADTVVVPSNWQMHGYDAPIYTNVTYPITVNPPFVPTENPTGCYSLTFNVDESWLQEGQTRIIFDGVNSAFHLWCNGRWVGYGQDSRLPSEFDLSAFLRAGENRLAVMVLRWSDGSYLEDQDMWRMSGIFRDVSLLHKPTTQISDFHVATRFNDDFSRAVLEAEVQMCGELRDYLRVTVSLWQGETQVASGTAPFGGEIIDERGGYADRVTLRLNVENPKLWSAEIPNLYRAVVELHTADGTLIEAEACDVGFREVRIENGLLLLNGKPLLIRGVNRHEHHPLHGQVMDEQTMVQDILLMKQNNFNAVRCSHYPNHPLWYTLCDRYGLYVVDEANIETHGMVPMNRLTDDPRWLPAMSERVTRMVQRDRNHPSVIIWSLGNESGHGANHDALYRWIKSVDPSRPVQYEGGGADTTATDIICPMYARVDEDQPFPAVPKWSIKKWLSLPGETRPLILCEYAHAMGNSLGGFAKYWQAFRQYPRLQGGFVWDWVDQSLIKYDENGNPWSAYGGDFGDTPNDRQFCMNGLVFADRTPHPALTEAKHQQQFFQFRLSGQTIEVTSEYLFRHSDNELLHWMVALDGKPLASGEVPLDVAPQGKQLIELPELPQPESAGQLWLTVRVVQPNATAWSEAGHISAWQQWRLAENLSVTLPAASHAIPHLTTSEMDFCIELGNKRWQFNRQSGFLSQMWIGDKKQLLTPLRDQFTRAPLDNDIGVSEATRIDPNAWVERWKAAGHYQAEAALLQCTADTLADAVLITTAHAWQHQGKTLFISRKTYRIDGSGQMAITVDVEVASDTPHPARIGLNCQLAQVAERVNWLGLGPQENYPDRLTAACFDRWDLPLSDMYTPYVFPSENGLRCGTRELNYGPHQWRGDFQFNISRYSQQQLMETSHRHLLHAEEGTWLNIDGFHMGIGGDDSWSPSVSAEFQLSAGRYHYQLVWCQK

With `CSc1ccccc1NC(=O)c1ccccc1N(Cc1ccccc1)S(C)(=O)=O` the IC50 [1] was > 50 µM (not active).
For `COc1ccccc1C(C[N+](=O)[O-])c1c(N)n(C)c(=O)n(C)c1=O` (stereo not given), the EC50 [2] was 6.01 µM (active), the CC50 [3] was 9.01 µM (active) and the EC50 [4] was 9.19 µM (active). For the same molecule, the IC50 [5] was 1.61 µM (active).
For `Cc1ccccc1N1C(=O)NC(=O)/C(=C/Nc2ccc3c(c2)OCO3)C1=O`, the IC50 [6] was > 100 µM (active).
In the case of `Oc1ccc(O)c(Cc2nc3ccccc3[nH]2)c1`, the IC50 [7] is reported as 3.45 µM (active).
In the case of `Cc1ccc(S(=O)(=O)c2cc3c(=O)n4ccccc4nc3n(Cc3ccco3)c2=N)cc1C`, the EC50 [8] is reported as 18.8 µM (active) and the EC50 [9] is reported as 17.9 µM (active).
In the case of `CC12CNCC(C)(CNC1)C2O` (stereo not given), the EC50 [8] is reported as > 20 µM (not active) and the EC50 [9] is reported as > 20 µM (not active).
For `Cc1ccccc1NC(=O)c1[nH]cnc1C(=O)NCc1ccccc1`, the IC50 [10] was 10.3 µM (active) and the IC50 [11] was > 31 µM (not active).
In the case of `Cc1ccc(S(=O)(=O)N2CCN(C(=O)CSc3ncc(C(F)(F)F)cc3Cl)CC2)cc1`, the IC50 [12] is reported as > 50 µM (not active).
With `O=C(Cc1cccs1)Nc1nncs1` the IC50 [1] was 17 µM (active).
In the case of `CCOC(=O)/C=C(\C)Sc1cc(O)c2ccccc2c1O`, the IC50 [13] is reported as > 66 µM (inactive), the IC50 [14] is reported as > 66.6 µM (inactive) and the IC50 [15] is reported as > 66 µM (inactive). For the same molecule, the IC50 [16] was 10.5 µM (active), the CC50 [17] was 22 µM (active) and the IC50 [18] was 5.24 µM (active). For the same molecule, the IC50 [7] was 11.8 µM (active).
For `Cc1ccc(C(=O)/C=C\Nc2ccc(C)c(C)c2)cc1`, the IC50 [6] was > 100 µM (active).
For `COC1(OC)C(/C=C/c2ccc(Cl)cc2)C(C#N)(C#N)C1(OC)OC` (stereo not given), the EC50 [19] was 2.45 µM (active), the AC50 [20] was 33.8 µM (active) and the EC50 [21] was 33.6 µM (active). The IC50 [5] was 1.76 µM (active).
For `O=C(Oc1oc(-c2ccco2)nc1/C=N/c1ccccc1)c1ccco1`, the EC50 [8] was > 20 µM (not active), the EC50 [9] was > 20 µM (not active) and the IC50 [22] was 1.32 µM (active).
With `CCOC(=O)c1c(N)sc(=S)c2c1CCC2` the IC50 [13] was > 66 µM (inactive), the IC50 [1] was > 50 µM (not active) and the IC50 [15] was > 66 µM (inactive). The IC50 [23] was > 100 µM (active).
With `CCc1sc(N)nc1-c1ccccc1` the IC50 [6] was > 100 µM (active).
